Laboratory results as given in ChEMBL document CHEMBL4813920, “Metronidazole-conjugates: A comprehensive review of recent developments towards synthesis and medicinal perspective” (Eur J Med Chem, 2021).
pIC50: −log10 of the molar value. In brackets after ≈: the same amount, converted by molar mass.

Columns and labels:
Clostridium sporogenes = assay: Antimicrobial activity against Clostridium sporogenes ATCC 19404 incubated for 24 hrs by broth microdilution method; type: functional
Giardia intestinalis [1] = assay: Antigiardial activity against Giardia intestinalis WB ATCC 30957 by trypan blue staining based assay; type: functional, organism-based; conditions: Giardia duodenalis
Entamoeba histolytica = assay: Antiamoebic activity against Entamoeba histolytica HK9 ATCC 30015 by trypan blue staining based assay; type: functional, organism-based
Pancreatic alpha-amylase = biological target: T1, Pancreatic alpha-amylase (Sus scrofa, UniProt P00690); assay: Inhibition of porcine pancreatic alpha-amylase using 1% starch as substrate preincubated for 10 mins followed by substrate addition and measured after 10 mins by absorbance method
T1 sequence (P00690 whole entry): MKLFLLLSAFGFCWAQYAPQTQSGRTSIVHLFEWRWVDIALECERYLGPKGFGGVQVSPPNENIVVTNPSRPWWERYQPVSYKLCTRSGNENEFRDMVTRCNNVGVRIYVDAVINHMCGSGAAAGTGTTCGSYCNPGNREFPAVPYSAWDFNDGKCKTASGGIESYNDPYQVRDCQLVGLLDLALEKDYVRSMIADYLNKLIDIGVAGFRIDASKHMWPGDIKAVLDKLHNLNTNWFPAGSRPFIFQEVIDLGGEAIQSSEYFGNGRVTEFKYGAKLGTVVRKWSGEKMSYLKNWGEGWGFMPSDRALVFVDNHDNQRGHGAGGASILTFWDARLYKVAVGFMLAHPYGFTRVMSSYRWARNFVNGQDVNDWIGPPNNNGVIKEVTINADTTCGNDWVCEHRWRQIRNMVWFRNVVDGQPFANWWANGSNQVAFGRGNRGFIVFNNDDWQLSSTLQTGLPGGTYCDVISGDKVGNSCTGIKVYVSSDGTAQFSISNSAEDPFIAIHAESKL

Leishmania braziliensis = assay: Antileishmanial activity against promastigote form of Leishmania braziliensis MHOM/BR/75/M2903 measured for 7 days by cell counting method; type: functional; conditions: MHOM/BR/75/M2903, 168 h, time 7 day
Leishmania mexicana = assay: Antileishmanial activity against promastigote form of Leishmania mexicana MHOM/BZ/82/Bel21 measured for 7 days by cell counting method; type: functional; conditions: MHOM/BZ/82/Bel21, 168 h, time 7 day
Carbonic anhydrase 9 = Carbonic anhydrase 9 (Homo sapiens, UniProt Q16790); assay: Inhibition of recombinant human carbonic anhydrase 9 preincubated with enzyme for 15 mins by phenol red dye based stopped flow CO2 hydration assay
Carbonic anhydrase 2 = Carbonic anhydrase 2 (Homo sapiens, UniProt P00918); assay: Inhibition of recombinant human carbonic anhydrase 2 preincubated with enzyme for 15 mins by phenol red dye based stopped flow CO2 hydration assay
Staphylococcus aureus [2] = assay: Antibacterial activity against Staphylococcus aureus ATCC 6538 incubated for 24 hrs by two fold serial dilution method; type: functional
[3] = Acute oral toxicity in mouse assessed as behavioral changes measured once daily for 14 days; conditions: in vivo, time 14 day
[4] = Inhibition of Escherichia coli N-terminal His-tagged FabH expressed in Escherichia coli BL21(DE3) by liquid scintillation counting method
[5] = Acute oral toxicity in mouse assessed as signs of gross toxicity measured once daily for 14 days; conditions: in vivo, time 14 day
[6] = Acute oral toxicity in mouse assessed as induction of mortality measured once daily for 14 days; conditions: in vivo, time 14 day
Bacillus spizizenii [7] = assay: Antibacterial activity against Bacillus subtilis ATCC 6633 incubated for 24 hrs by two fold serial dilution method; type: functional
Escherichia coli [8] = assay: Antibacterial activity against Escherichia coli ATCC 35218 incubated for 24 hrs by two fold serial dilution method; type: functional
Pseudomonas aeruginosa [9] = assay: Antibacterial activity against Pseudomonas aeruginosa ATCC 13525 incubated for 24 hrs by two fold serial dilution method; type: functional
Escherichia coli [10] = assay: Antibacterial activity against Escherichia coli ATCC 8739 incubated for 24 hrs by broth microdilution method; type: functional
Staphylococcus aureus [11] = assay: Antibacterial activity against Staphylococcus aureus ATCC 6538P incubated for 24 hrs by broth microdilution method; type: functional
Escherichia coli [12] = assay: Antibacterial activity against Escherichia coli ATCC 35218 by MH media dilution method; type: functional
Staphylococcus aureus [13] = assay: Antibacterial activity against Staphylococcus aureus ATCC 6538 by MH media dilution method; type: functional
Bacillus spizizenii [14] = assay: Antibacterial activity against Bacillus subtilis ATCC 6633 by MH media dilution method; type: functional
Pseudomonas aeruginosa [15] = assay: Antibacterial activity against Pseudomonas aeruginosa ATCC 13525 by MH media dilution method; type: functional
MDA-MB-231 = assay: Antiproliferative activity against human MDA-MB-231 cells after 24 hrs by MTT assay; type: functional, cell-based; conditions: MDA-MB-231, 24 h
Trichomonas vaginalis = assay: Anti-trichomonas activity against Trichomonas vaginalis GT3 incubated for 48 hrs; type: functional, organism-based; conditions: GT3, 48 h
[16] = Selectivity index, ratio of CC50 for African green monkey Vero cells to IC50 for antigiardial activity against Trichomonas vaginalis GT3; type: toxicity; conditions: read-out: Ratio CC50/IC50
[17] = Selectivity index, ratio of CC50 for African green monkey Vero cells to IC50 for antigiardial activity against Giardia intestinalis MSS:0696:1; type: toxicity; conditions: read-out: Ratio CC50/IC50
Giardia intestinalis [18] = assay: Antigiardial activity against Giardia intestinalis MSS:0696:1 incubated for 48 hrs; type: functional, organism-based; conditions: Giardia duodenalis, MSS:0696:1, 48 h
HeLa = assay: Antiproliferative activity against human Hela cells incubated for 24 to 48 hrs by CCK8 assay; type: functional, cell-based
A549 = assay: Antiproliferative activity against human A549 cells incubated for 24 to 48 hrs by CCK8 assay; type: functional, cell-based
HepG2 = assay: Antiproliferative activity against human HepG2 cells incubated for 24 to 48 hrs by CCK8 assay; type: functional, cell-based
U-251 = assay: Antiproliferative activity against human U-251 cells incubated for 24 to 48 hrs by CCK8 assay; type: functional, cell-based

## COc1ccc(-n2c(SCCn3c([N+](=O)[O-])cnc3C)nnc2-c2cccnc2)cc1
Clostridium sporogenes
  MIC: 17.8 µM (≈ 7.79 µg/mL)
Giardia intestinalis [1]
  pIC50: 5.75
Entamoeba histolytica
  pIC50: 6.32

## Cc1cccc(COCCn2c([N+](=O)[O-])cnc2C)c1
Pancreatic alpha-amylase
  pIC50: 6.42

## Cc1ncc([N+](=O)[O-])n1CCOCc1ccc2ccccc2c1
Pancreatic alpha-amylase
  pIC50: 5.78

## Cc1ncc([N+](=O)[O-])n1CCOCc1ccc(F)cc1
Pancreatic alpha-amylase
  pIC50: > 5.53

## Cc1ncc([N+](=O)[O-])n1CCOCc1ccc[nH]1
Pancreatic alpha-amylase
  pIC50: > 5.53

## Cc1ncc([N+](=O)[O-])n1CCOCc1ccncc1
Pancreatic alpha-amylase
  pIC50: > 5.53

## Cc1ncc([N+](=O)[O-])n1CCOCc1cccc(Cl)c1
Pancreatic alpha-amylase
  pIC50: > 5.53

## Cc1ncc([N+](=O)[O-])n1CCSCO
Leishmania braziliensis
  LC50: 950 µM
Leishmania mexicana
  LC50: 2250 µM

## Cc1ncc([N+](=O)[O-])n1CCOCc1ccc(C#N)cc1
Pancreatic alpha-amylase
  pIC50: > 5.53

## COc1cccc(COCCn2c([N+](=O)[O-])cnc2C)c1
Pancreatic alpha-amylase
  pIC50: > 5.53

## Cc1ncc([N+](=O)[O-])n1CCOCc1ccccc1Cl
Pancreatic alpha-amylase
  pIC50: > 5.53

## Cc1ncc([N+](=O)[O-])n1CCOc1ccc(/C=N\c2ccc(S(=O)(=O)NC(=N)N)cc2)cc1
Carbonic anhydrase 9
  pIC50: 6.87
Carbonic anhydrase 2
  pIC50: 7.15

## Cc1ncc([N+](=O)[O-])n1CCOCc1ccc(F)cc1Br
Pancreatic alpha-amylase
  pIC50: > 5.53

## Cc1ccnc(NS(=O)(=O)c2ccc(/N=C/c3ccc(C(=O)OCCn4c([N+](=O)[O-])cnc4C)cc3)cc2)n1
Staphylococcus aureus [2]
  MIC: 12.5 µg/mL (≈ 22.7 µM)
[3]
  LD50 at 336 h: > 5000 mg/kg
[4]
  pIC50: 5.25
[5]
  LD50 at 336 h: > 5000 mg/kg
[6]
  LD50 at 336 h: > 5000 mg/kg
Bacillus spizizenii [7]
  MIC: 6.25 µg/mL (≈ 11.4 µM)
Escherichia coli [8]
  MIC: 3.13 µg/mL (≈ 5.7 µM)
Pseudomonas aeruginosa [9]
  MIC: 12.5 µg/mL (≈ 22.7 µM)

## Cc1ncc([N+](=O)[O-])n1CCOCc1ccccc1Br
Pancreatic alpha-amylase
  pIC50: > 5.53

## Cc1ncc([N+](=O)[O-])n1CCOCc1ccc(Br)cc1
Pancreatic alpha-amylase
  pIC50: > 5.53

## Cc1cc(COCCn2c([N+](=O)[O-])cnc2C)ccc1[N+](=O)[O-]
Pancreatic alpha-amylase
  pIC50: > 5.53

## Cc1ncc([N+](=O)[O-])n1CCOc1ccc(/C=N\c2ccc(S(=O)(=O)Nc3nccs3)cc2)cc1
Carbonic anhydrase 9
  pIC50: 7.03
Carbonic anhydrase 2
  pIC50: 7.80

## Cc1cc(C)nc(NS(=O)(=O)c2ccc(/N=C/c3ccc(C(=O)OCCn4c([N+](=O)[O-])cnc4C)cc3)cc2)n1
Staphylococcus aureus [2]
  MIC: 3.13 µg/mL (≈ 5.55 µM)
[3]
  LD50 at 336 h: > 5000 mg/kg
[4]
  pIC50: 5.57
[5]
  LD50 at 336 h: > 5000 mg/kg
[6]
  LD50 at 336 h: > 5000 mg/kg
Bacillus spizizenii [7]
  MIC: 1.56 µg/mL (≈ 2.77 µM)
Escherichia coli [8]
  MIC: 1.56 µg/mL (≈ 2.77 µM)
Pseudomonas aeruginosa [9]
  MIC: 3.13 µg/mL (≈ 5.55 µM)

## Cc1cc(NNS(=O)(=O)c2ccc(/N=C\c3ccc(OCCn4c([N+](=O)[O-])cnc4C)cc3)cc2)no1
Carbonic anhydrase 9
  pIC50: 6.95
Carbonic anhydrase 2
  pIC50: 7.48

## Cc1ncc([N+](=O)[O-])n1CCn1c(-c2ccncc2)nn(-c2ccccc2)c1=S
Clostridium sporogenes
  MIC: 29.9 µM (≈ 12.2 µg/mL)
Giardia intestinalis [1]
  pIC50: 6.12
Entamoeba histolytica
  pIC50: 5.49

## CC1(C)S[C@@H]2[C@H](NC(=O)[C@H](N)c3ccccc3)C(=O)N2[C@H]1C(=O)O [AMPICILLIN]
Escherichia coli [10]
  MIC: 2.3 µM (≈ 0.804 µg/mL)
Staphylococcus aureus [11]
  MIC: 0.036 µM (≈ 0.0126 µg/mL)

## NC[C@H]1O[C@H](O[C@H]2[C@H](O)[C@@H](O[C@H]3O[C@H](CO)[C@@H](O)[C@H](N)[C@H]3O)[C@H](N)C[C@@H]2N)[C@H](N)[C@@H](O)[C@@H]1O [BEKANAMYCIN]
Staphylococcus aureus [2]
  MIC: 1.56 µg/mL (≈ 3.23 µM)
Bacillus spizizenii [7]
  MIC: 0.78 µg/mL (≈ 1.61 µM)
Escherichia coli [8]
  MIC: 1.56 µg/mL (≈ 3.23 µM)
Pseudomonas aeruginosa [9]
  MIC: 3.13 µg/mL (≈ 6.47 µM)

## O=C(N[C@H](CO)[C@H](O)c1ccc([N+](=O)[O-])cc1)C(Cl)Cl [CHLORAMPHENICOL]
Escherichia coli [12]
  MIC: 3.91 µg/mL (≈ 12.1 µM)
Staphylococcus aureus [13]
  MIC: 3.91 µg/mL (≈ 12.1 µM)
Bacillus spizizenii [14]
  MIC: 3.91 µg/mL (≈ 12.1 µM)
Pseudomonas aeruginosa [15]
  MIC: 0.98 µg/mL (≈ 3.03 µM)

## CC1(C)S[C@@H]2[C@H](NC(=O)Cc3ccccc3)C(=O)N2[C@H]1C(=O)O [PENICILLIN G]
Escherichia coli [12]
  MIC: 7.82 µg/mL (≈ 23.4 µM)
Staphylococcus aureus [2]
  MIC: 6.25 µg/mL (≈ 18.7 µM)
Staphylococcus aureus [13]
  MIC: 1.96 µg/mL (≈ 5.86 µM)
Bacillus spizizenii [7]
  MIC: 1.56 µg/mL (≈ 4.67 µM)
Bacillus spizizenii [14]
  MIC: 0.98 µg/mL (≈ 2.93 µM)
Escherichia coli [8]
  MIC: 3.13 µg/mL (≈ 9.36 µM)
Pseudomonas aeruginosa [9]
  MIC: 6.25 µg/mL (≈ 18.7 µM)
Pseudomonas aeruginosa [15]
  MIC: 7.82 µg/mL (≈ 23.4 µM)

## CC1=CC(=O)c2c(O)cccc2C1=O [PLUMBAGIN]
MDA-MB-231
  pIC50: 5.36

## Cc1ncc([N+](=O)[O-])n1CC(C)O (stereo not given) [SECNIDAZOLE]
Trichomonas vaginalis
  pIC50: 4.87
[16]
  selectivity ratio: > 7
[17]
  selectivity ratio: > 24
Giardia intestinalis [18]
  pIC50: 5.36

## C[C@@H]1CCN(C(=O)CC#N)C[C@@H]1N(C)c1ncnc2[nH]ccc12 [TOFACITINIB]
HeLa
  pIC50: 7.40
A549
  pIC50: 7.00
HepG2
  pIC50: 6.96
U-251
  pIC50: 6.48
